The values below come from US6103732A, “Carboxylic acid derivatives, their production and use” (BASF Aktiengesellschaft, priority 1996, dated 2000).

Like-named read-outs stand apart in the source and are kept apart here.

The target of one assay is T1, human ETA receptor (Homo sapiens, UniProt P25101).
T1 construct: expressed in transfected cells; host or cells: CHO cells
T1 sequence (P25101 21-427): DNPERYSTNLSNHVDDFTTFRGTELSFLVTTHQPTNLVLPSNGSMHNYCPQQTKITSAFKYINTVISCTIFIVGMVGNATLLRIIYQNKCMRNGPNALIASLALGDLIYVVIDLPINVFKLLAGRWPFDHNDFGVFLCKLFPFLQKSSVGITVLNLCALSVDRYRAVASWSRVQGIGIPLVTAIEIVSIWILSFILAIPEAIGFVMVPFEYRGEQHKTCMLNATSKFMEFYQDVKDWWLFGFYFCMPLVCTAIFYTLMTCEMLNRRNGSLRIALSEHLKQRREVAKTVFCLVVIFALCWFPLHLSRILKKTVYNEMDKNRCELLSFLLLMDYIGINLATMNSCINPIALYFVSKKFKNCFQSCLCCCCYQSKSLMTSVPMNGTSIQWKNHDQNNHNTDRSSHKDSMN
Description: Receptor binding assay, ETA ([125I]-ET1, membranes of ETA receptor-expressing CHO cells). As to the method: (§1) Cloned human ETA receptor-expressing CHO cells and guinea pig cerebellar membranes with >60% ETB compared with ETA receptors were used for binding studies.
The ETA receptor-expressing CHO cells were grown in F12 medium containing 10% fetal calf serum, 1% glutamine, 100 E/ml penicillin and 0.2% streptomycin (Gibco BRL, Gaithersburg, Md., USA). After 48 h, the cells were washed with PBS and incubated with 0.05% trypsin-containing PBS for 5 min. Neutralization was then carried out with F12 medium and the cells were collected by centrifugation at 300×g. To lyse the cells, the pellet was briefly washed with lysis buffer (5 mM tris-HCl, pH 7.4 with 10% glycerol) and then incubated at a concentration of 10^7 cells/ml of lysis buffer at 4° C. for 30 min. The membranes were centrifuged at 20,000×g for 10 min, and the pellet was stored in liquid nitrogen.
(§2) The nonspecific binding was determined with 10^-7 M ET1. After 30 min, filtration was carried out through GF/B glass fiber filters (Whatman, England) in a Skatron cell collector (Skatron, Lier, Norway) to separate free and bound radioligands, and the filters were washed with ice-cold tris-HCl buffer, pH 7.4 with 0.2% BSA. The radioactivity collected on the filters was quantified using a Packard 2200 CA liquid scintillation counter.

The target in another assay is T2, ETB receptor (Cavia porcellus, UniProt H0VTF3).
T2 construct: Guinea pig cerebella were homogenized in a Potter-Elvejhem homogenizer; from tissue; host or cells: guinea pig cerebellum (membranes)
T2 sequence (H0VTF3 27-415): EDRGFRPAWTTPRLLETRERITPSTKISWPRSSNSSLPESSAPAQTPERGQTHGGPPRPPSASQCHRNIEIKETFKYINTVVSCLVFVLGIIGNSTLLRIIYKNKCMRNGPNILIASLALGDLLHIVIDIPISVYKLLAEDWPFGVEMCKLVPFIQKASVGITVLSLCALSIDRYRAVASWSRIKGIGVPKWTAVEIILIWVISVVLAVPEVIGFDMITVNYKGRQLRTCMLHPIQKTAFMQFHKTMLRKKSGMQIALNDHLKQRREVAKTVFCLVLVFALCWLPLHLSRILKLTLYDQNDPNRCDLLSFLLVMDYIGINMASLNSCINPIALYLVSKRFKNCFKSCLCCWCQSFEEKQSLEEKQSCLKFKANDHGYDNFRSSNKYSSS
The experiment in a line: Receptor binding assay, ETB ([125I]-RZ3, guinea pig cerebellar membranes). The method, then:
as §1
Guinea pig cerebella were homogenized in a Potter-Elvejhem homogenizer and were obtained by differential centrifugation at 1,000×g for 10 min and repeated centrifugation of the supernatent at 20,000×g for 10 min.
as §2

The mark [1] stands for this setting: cloned human ETA receptor-expressing CHO cell membranes, 25 pM [125I]-ET1, 30 min, read-out: Receptor binding data (Ki values) ETA.
Setting [2] is: guinea pig cerebellar membranes (>60% ETB compared with ETA receptors), 25 pM [125I]-RZ3, 30 min, read-out: Receptor binding data (Ki values) ETB.

Take `COc1cc(OC(C(=O)O)C(OC)(c2ccccc2)c2ccccc2)nc(OC)n1` (centres unmarked) [Compound I-1, 2-(2,6-Dimethoxy-4-pyrimidinyloxy)-3-methoxy-3,3-diphenyl-propionic acid]: the Ki amounted to 0.038 µM on human ETA receptor and 8 µM on ETB receptor.

In the case of `COC(c1ccccc1)(c1ccccc1)C(Oc1cc(C(F)(F)F)nc(C(C)(C)C)n1)C(=O)O` (centres unmarked) [Compound I-91, 2-(2-tert-Butyl-6-trifluoromethyl-4-pyrimidinyloxy)-3-methoxy-3,3-diphenylpropionic acid], the Ki on human ETA receptor (setting [1]) is 3.3 µM; on ETB receptor (setting [2]), more than 10 µM.

For `COC(c1ccccc1)(c1ccccc1)C(Oc1cc(C)c2ccccc2n1)C(=O)O` (centres unmarked) [Compound I-166, 2-(4-Methyl-2-quinolinyloxy)-3-methoxy-3,3-diphenylpropionic acid], the Ki on human ETA receptor (setting [1]) amounted to 0.5 µM; at ETB receptor (setting [2]), 4 µM.

Turning to `COC(c1ccccc1)(c1ccccc1)C(Oc1ccc2ccccc2n1)C(=O)O` (centres unmarked) [Compound I-167], the Ki at human ETA receptor (setting [1]) is 3 µM; at ETB receptor (setting [2]), more than 7 µM.
